Assays:
[1] = system: U-2 OS cells; experiment: Metaphase-TIFs in cells overexpressing FANCM variants; format: cell-based, human; details: stable overexpression
Description: (§1) (a) Schematic of FANCM domain interactions, mutations or deletions. For clarity, domains have been color coded by functional role (bottom panel). (b) Quantitation of metaphase-TIFs in U-2 OS cells stably overexpressing wild-type (FANCM+) or FANCM mutants. Scatterplot bars represent the mean±SEM. Out of 3 experiments, n≥110 metaphases scored for each mutant, *p<0.05, **p<0.005, Mann-Whitney test. (c) Quantitation of fragile telomeres in U-2 OS cells stably overexpressing wild-type (FANCM+) or FANCM mutants. Scatterplot bars represent the mean±SEM. Out of 3 experiments, n>100 metaphases scored for each mutant, *p<0.05, **p<0.005, Mann-Whitney test. (d) Representative dot blots and quantitation of C-circle assays in U-2 OS cells stably overexpressing wild-type (FANCM+) or FANCM domain mutants. C-circles were normalized to the mean of vector control. Error bars represent mean±SEM from n=3 experiments, *p<0.05, **p<0.005, Student's t-test. (e) Single molecule analysis of telomeric extension events (top panel) and length of extension events (bottom panel) in U-2 OS cells stably overexpressing wild-type (FANCM+) or FANCM domain mutants. Error bars represent mean±SEM of n≥350 fibers out of 3 experiments, *p<0.05, **p<0.005, Student's t-test.
FIG. 23. Defects in ALT phenotype suppression are exacerbated by overexpression of a double-mutant (DM) FANCM, in which both the MM2 domain (FF>AA) and the translocase domain (K117R) of FANCM are mutated. (a) Representative dot blots and quantitation of C-circle assays in U-2 OS cells stably overexpressing wild-type (WT) or FANCM domain mutants (K117R, FF>AA; DM). C-circles were normalized to the mean of empty vector control (EV). Error bars represent mean±SEM from n=3 experiments, *p<0.05, **p<0.005, Student's t-test. (b) Quantitation of APB frequency in U-2 OS cells overexpressing wild-type (WT) or FANCM mutants. Scatterplot bars represent the mean±SEM. Out of three experiments, n=150 cells were scored for each mutant, **p<0.005, Mann-Whitney test. (c) Quantitation of metaphase-TIFs in U-2 OS cells stably overexpressing wild-type (WT) or FANCM mutants. Scatterplot bars represent the mean±SEM. Out of three experiments, n=120 metaphases scored for each mutant, *p<0.05, **p<0.005, Mann-Whitney test. All statistical comparisons are relative to EV control.
Empty vector and wild-type FANCM (pCMV6-Myc-DDK) constructs were obtained from Origene Technologies. Wild type FANCM (SEQ ID NO: 2) and FANCM mutants (SEQ ID NOs: 19 to 28) were cloned into the pLenti-C-Myc-DDK-IRES-Neo backbone (Origene Technologies) by restriction enzyme subcloning of gene blocks synthesized by Integrated DNA Technologies (IDT). Lentivirus was produced by the Vector and Genome Engineering Facility (Children's Medical Research Institute). For stable overexpression, cells were transduced with lentivirus, allowed to recover for 24 h, and subject to G418 selection. Cells were maintained in G418 to ensure sustained overexpression.
Indirect IF and telomere FISH were performed on both interphase nuclei and metaphase spreads. For interphase IF experiments, cells were grown on coverslips or LabTek chamber slides (Thermo Scientific). Slides were prepared as described in Sobinoff et al., 2017. Cells on coverslips were washed twice with PBS, permeabilized with KCM buffer (120 mM KCl, 20 mM NaCl, 10 mM Tris pH 7.5, 0.1% Triton), washed again with PBST and PBS, then fixed with ice-cold 4% formaldehyde PBS solution at room temperature for 10 min. […]

[2] = system: U-2 OS cells; experiment: Single molecule analysis of telomeric extension events (SMAT) in cells overexpressing FANCM variants; format: cell-based, human; details: overexpression
Description: as §1, with “(e) Single molecule analysis of telomeric extension events (top panel) and length of extension events (bottom panel) in U-2 OS cells stably overexpressing wild-type (FANCM+) or FANCM domain mutants. Error bars represent mean±SEM of n≥350 fibers out of 3 experiments, *p<0.05, **p<0.005, Student's t-test.” left out
Cells were labelled with 100 μM CIdU for 5 h prior to harvesting by trypsinization. […] Halogenated nucleotides were detected with a rat anti-CldU monoclonal antibody (Accurate) and Alexa Fluor 488-conjugated goat anti-rat antibody (Molecular Probes). Telomere fibers were detected on a Zeiss Axio Imager microscope with ApoTome module and analyzed with Zen software (Zeiss).

Row | Substance | telomere dysfunction (metaphase-TIFs) [1] | number of telomere extension events [2]
1 | K117R: FANCM mutant (SEQ ID NO: 20) substituted at K117R, DEAH domain disrupted | failed to suppress the phenotypes | –
2 | FF>AA: FANCM mutant (SEQ ID NO: 25), double substitution F1232A/F1236A within the MM2 domain | significantly increased | significant increase in the number of extension events
